Laboratory results from patent US20210341448A1, “SCREENING METHOD FOR THERAPEUTIC DRUG OR PROPHYLACTIC DRUG FOR TAUOPATHY AND DIAGNOSTIC METHOD FOR TAUOPATHY” (National Center for Geriatrics and Gerontology, priority 2018, published 2021).

Legend:
[1] = test system: NT2-N cells; test: Adhesion activity of tau oligomers to NT2-N cell surface (fluorescence microscopy); assay type: cell-based, human; conditions: on ice 30 minutes, no membrane permeabilization
Method: Cal-520 AM was loaded to the NT2-N cells prepared in the above (4-1) by the procedure of the above (4-2), exposed to the tau oligomer sample (10 μl/ml) prepared in the above (1-3) and incubated on ice for 30 minutes. Subsequently, the cells were washed 3 times with DPBS(−) (137 mM of NaCl, 2.68 mM of KCl, 1.47 mM of KH2PO4, 8.06 mM of Na2HPO4) and fixed with 4% paraformaldehyde at room temperature for 15 minutes. After thorough washing with DPBS(−) (10 minutes×3 times), blocking was done with 1% BSA and 3% donkey serum/DPBS for 30 minutes. Then, the anti-phosphorylated tau antibody (anti-pTau (paired pS409, pS412, pS413), AnaSpec, #AS-55416) (1:1500 dilution) as the primary antibody was reacted at room temperature for 1 hour, and Alexa594-labelled anti-mouse IgG (Jackson Immuno Research, #711-585-152) (1:1500 dilution) as a secondary antibody was reacted at room temperature for 30 minutes, to thereby carry out immunostaining. The stained cells were observed using a fluorescence microscope (BZ-X710, Keyence Corporation).
The HT-tau oligomer sample prepared in the above (1-4), instead of the tau oligomer sample prepared in the above (1-3), was exposed to the NT2-N cells by the same procedure as in the above (5-1). After thorough washing, fluorescence microscopic observation was carried out.

[2] = test system: postsynaptic NMDAR and AMPAR; test: Western blot of NMDA and AMPA receptor amounts on the synapse, brain slices of tau knockout mice; conditions: tau knockout mouse brain slice
Method: (§1) The brain slice specimens were frozen and disrupted in a 50-fold volume of homogenizing buffer (4 mM of HEPES, 2 mM of EGTA, 0.32 M of sucrose, pH 7.4) using a Teflon® homogenizer. The disrupted tissue solution was centrifuged at 4° C., 1,000×g for 15 minutes to thereby collect the supernatant, and the supernatant was further centrifuged at 4° C., 12,000×g for 15 minutes to thereby collect membrane fractions (pellets). The obtained membrane fractions were dissolved in tris-buffered saline containing 0.5% Triton X-100 (50 mM of Tris, 500 mM of NaCl, pH 7.4) and were centrifuged at 4° C., 20,000×g for 15 minutes. The supernatant was used as a 0.5% Triton X-100-soluble membrane fraction sample and the pellet was used as a 0.5% Triton X-100-insoluble membrane fraction sample. The western blot was carried out on the 0.5% Triton X-100-insoluble membrane fraction sample to quantify the AMPA receptor (GluA2 subunit) and the NMDA receptors (NR2a and NR2b subunits). The antibodies used were an anti-Glu2 antibody (Alomone Labs, #AGC-073) (1:1000 dilution), an anti-NR2A antibody (Alomone Labs, #AGC-002) (1:1000 dilution), and an anti-NR2B antibody (Alomone Labs, #AGC-003) (1:1000 dilution).
In the tau knockout mice, the reduction of NMDARs and AMPARs on the synapse by the exposure of the tau oligomer sample was not observed.

[3] = test system: postsynaptic NMDAR and AMPAR; test: Western blot of NMDA and AMPA receptor amounts on the synapse, brain slices of aging C57BL/6 mice; design: species or system mouse; conditions: aging C57BL/6 brain slice, 0.5% Triton X-100-insoluble membrane fraction
Method: As the molecule mechanism of NMDAR-LTD, it has been known that the AMPA receptors (hereinafter described as “AMPAR”) and/or the NMDA receptors (NMDAR) are incorporated into a cell by the endocytosis in the postsynaptic membrane caused by the activation of the NMDA receptors. Thus, an analysis was performed on the changes in amount of NMDARs and AMPARs on synapses in the brain slice specimens exposed to the tau oligomer sample and the brain slice specimens not exposed to the tau oligomer sample, prepared by the procedures of the above (2-1) and (2-2).
as §1, with “The supernatant was used as a 0.5% Triton X-100-soluble membrane fraction sample and the pellet was used as a 0.5% Triton X-100-insoluble membrane fraction sample.” left out, “The antibodies used were an anti-Glu2 antibody (Alomone Labs, #AGC-073) (1:1000 dilution), an anti-NR2A antibody (Alomone Labs, #AGC-002) (1:1000 dilution), and an anti-NR2B antibody (Alomone Labs, #AGC-003) (1:1000 dilution).” left out

tau oligomer: polymer of human tau 2N4R monomers, polymerized with mouse brain extract and ATP, collected as pellets
adhesion to the cell surface [1]: adhered in a patchy pattern
reduction of AMPARs on the synapse [2]: not observed
reduction of NMDARs on the synapse [2]: not observed
amount of AMPARs on the postsynaptic site ([3]; GluA2, normalized to aCSF): reduced
amount of NMDARs on the postsynaptic site ([3]; NR2a and NR2b, normalized to aCSF): reduced
